Measurements as given in the supplement of paper PMC10307832.

Legend:
Assay in all cases: relative viability (nuclei count vs DMSO), 5 days (fraction); higher = more cells survive
CUDC-101 + OSI-027 = compound: C#Cc1cccc(Nc2ncnc3cc(OC)c(OCCCCCCC(=O)NO)cc23)c1 [CUDC-101] + COc1cccc2cc(-c3nc([C@H]4CC[C@H](C(=O)O)CC4)n4ncnc(N)c34)[nH]c12 [OSI-027] (partner 0.5 µM)
Method in brief: (§1)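 Medians of duplicate plates are given as relative viability. That measure is the nuclei count in treated wells divided by the count in vehicle wells. Counts were taken on 4× images of lung cancer cell lines in 1536-well plates, 5 days after pin-tool dosing the day after seeding with one drug alone or a fixed anchor-drug dose plus five library-drug doses (not always all listed) in √10 steps.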

CUDC-101 + Luminespib = compound: C#Cc1cccc(Nc2ncnc3cc(OC)c(OCCCCCCC(=O)NO)cc23)c1 [CUDC-101] + CCNC(=O)c1noc(-c2cc(C(C)C)c(O)cc2O)c1-c1ccc(CN2CCOCC2)cc1 [Luminespib] (partner 0.01 µM)
Method in brief: as §1

[1] = compound: C1=CC=C2C(=C1)N=C(S2)C(C#N)C3=NC(=NC=C3)NCCC4=CN=CC=C4 + Nc1nc2[nH]cc(CCc3ccc(C(=O)N[C@@H](CCC(=O)O)C(=O)O)cc3)c2c(=O)[nH]1 [Pemetrexed] (partner 0.2 µM)
Method in brief: as §1

[2] = compound: C1=CC=C2C(=C1)N=C(S2)C(C#N)C3=NC(=NC=C3)NCCC4=CN=CC=C4 + O=C(c1cc(Cc2n[nH]c(=O)c3ccccc23)ccc1F)N1CCN(C(=O)C2CC2)CC1 [Olaparib] (partner 8 µM)
Method in brief: as §1

Row | Cell Line | relative viability (CUDC-101 + OSI-027; first compound 0.01 µM) | relative viability (CUDC-101 + OSI-027; first compound 0.03162 µM) | relative viability (CUDC-101 + OSI-027; first compound 0.1 µM) | relative viability (CUDC-101 + OSI-027; first compound 0.3162 µM) | relative viability (CUDC-101 + OSI-027; first compound 1 µM) | relative viability (CUDC-101 + Luminespib; first compound 0.01 µM) | relative viability (CUDC-101 + Luminespib; first compound 0.03162 µM) | relative viability (CUDC-101 + Luminespib; first compound 0.1 µM) | relative viability (CUDC-101 + Luminespib; first compound 0.3162 µM) | relative viability (CUDC-101 + Luminespib; first compound 1 µM) | relative viability ([1]; first compound 0.005 µM) | relative viability ([1]; first compound 0.01581 µM) | relative viability ([1]; first compound 0.05 µM) | relative viability ([1]; first compound 0.1581 µM) | relative viability ([1]; first compound 0.5 µM) | relative viability ([2]; first compound 0.005 µM) | relative viability ([2]; first compound 0.01581 µM) | relative viability ([2]; first compound 0.05 µM) | relative viability ([2]; first compound 0.1581 µM) | relative viability ([2]; first compound 0.5 µM)
1 | A-427 | 0.464 | 0.486 | 0.351 | 0.473 | 0.308 | 0.919 | 0.92 | 0.864 | 0.75 | 0.55 | 0.874 | 0.94 | 0.995 | 1.1 | 0.975 | 0.699 | 0.694 | 0.698 | 0.856 | 0.718
2 | NCI-H2170 | 0.697 | 0.765 | 0.605 | 0.686 | 0.619 | 0.626 | 0.286 | 0.719 | 0.471 | 0.465 | 0.275 | 0.26 | 0.27 | 0.27 | 0.274 | 0.592 | 0.686 | 0.621 | 0.598 | 0.458
3 | NCI-H1395 | 0.746 | 0.629 | 0.628 | 0.727 | 0.508 | 0.623 | 0.733 | 0.906 | 0.802 | 0.663 | 0.71 |  | 0.949 | 1.13 | 0.952 | 0.476 |  | 0.475 | 0.457 | 0.541
4 | NCI-H650 | 0.58 | 0.569 | 0.622 | 0.587 | 0.474 | 0.959 | 0.688 | 0.912 | 0.957 | 0.619 | 0.938 | 0.879 | 0.905 | 0.924 | 1.14 | 0.412 | 0.369 | 0.441 | 0.345 | 0.363
5 | NCI-H1437 | 0.857 | 0.876 | 0.886 | 0.952 | 0.662 | 1.27 | 1.06 | 1.12 | 1.21 | 1.19 | 0.329 | 0.298 | 0.321 | 0.335 | 0.311 | 0.542 | 0.607 | 0.65 | 0.673 | 0.507
6 | NCI-H2342 | 0.579 | 0.607 | 0.59 | 0.673 | 0.725 | 0.764 | 0.644 | 0.829 | 0.737 | 0.692 | 0.823 | 0.716 | 0.697 | 0.85 | 0.81 | 0.536 | 0.454 | 0.495 | 0.442 | 0.45
7 | NCI-H661 | 0.709 | 0.808 | 0.735 | 0.711 | 0.346 | 0.985 | 0.975 | 0.876 | 0.835 | 0.674 | 0.84 | 0.916 | 0.85 | 0.904 | 0.876 | 0.543 | 0.8 | 0.723 | 0.801 | 0.613
8 | SW 900 | 0.577 | 0.42 | 0.562 | 0.577 | 0.662 | 0.168 | 0.181 | 0.185 | 0.157 | 0.174 | 0.39 | 0.471 | 0.484 | 0.521 | 0.482 | 0.65 | 0.755 | 0.838 | 0.938 | 0.87
9 | HCC-44 | 0.527 | 0.685 | 0.587 | 0.586 | 0.295 | 0.947 | 0.909 | 1.03 | 1.03 | 1.06 | 0.723 | 0.677 | 0.668 | 0.648 | 0.675 | 0.994 | 1 | 0.987 | 1.01 | 0.968
10 | NCI-H1355 | 0.393 | 0.385 | 0.411 | 0.416 | 0.309 | 0.729 | 0.741 | 0.694 | 0.676 | 0.586 | 1.05 | 1.01 | 1.02 | 1.13 | 1.02 | 0.704 | 0.761 | 0.764 | 0.825 | 0.769
11 | NCI-H1993 | 0.61 | 0.552 | 0.625 | 0.626 | 0.657 | 0.933 | 0.772 | 0.72 | 0.772 | 0.535 | 0.53 | 0.627 | 0.555 | 0.728 | 0.542 | 0.903 | 1.06 | 1.18 | 0.986 | 1.06
12 | NCI-H1734 | 0.641 | 0.577 | 0.638 | 0.608 | 0.38 | 0.206 | 0.185 | 0.193 | 0.167 | 0.157 | 0.412 | 0.405 | 0.416 | 0.434 | 0.418 | 0.509 | 0.616 | 0.664 | 0.633 | 0.614
13 | SK-MES-1 | 0.604 | 0.601 | 0.673 | 0.656 | 0.381 | 0.854 | 0.72 | 0.755 | 0.567 | 0.52 | 0.799 | 0.923 | 0.823 | 1.04 | 0.644 | 0.821 | 0.76 | 0.617 | 0.798 | 0.569
14 | COR-L 105 | 0.717 | 0.73 | 0.399 | 0.61 | 0.204 | 0.768 | 0.701 | 0.845 | 0.831 | 0.476 | 0.839 | 1.24 | 1.03 | 1.03 | 1.02 | 0.544 | 0.602 | 0.602 | 0.578 | 0.551
15 | EMC-BAC-2 | 0.405 | 0.371 | 0.401 | 0.315 | 0.263 | 1.29 | 1.08 | 1.2 | 1.22 | 0.973 | 0.488 | 0.442 | 0.414 | 0.477 | 0.429 | 0.512 | 0.481 | 0.469 | 0.476 | 0.427
